Laboratory results: patent US20060045953A1 (priority 2004, published 2006)
pEC50: −log10 of the molar value. Where two headings read alike, the source gives them in different places.

How the values were obtained:
[1] = target: T1, hT1R2/hT1R3 sweet receptor (Homo sapiens, UniProt Q7RTX0+Q8TE23); test: In vitro hT1R2/hT1R3 sweet taste receptor activation assay (FLIPR, dose response); type: cell-based; details: read-out: EC50 for activation of a hT1R2/hT1R3 sweet receptor expressed in an HEK293 cell line
T1 construct: expressed in transfected cells; host or cells: HEK293 derivative stably expressing Gα15, clone S-9
T1 sequence (Q8TE23 20-839): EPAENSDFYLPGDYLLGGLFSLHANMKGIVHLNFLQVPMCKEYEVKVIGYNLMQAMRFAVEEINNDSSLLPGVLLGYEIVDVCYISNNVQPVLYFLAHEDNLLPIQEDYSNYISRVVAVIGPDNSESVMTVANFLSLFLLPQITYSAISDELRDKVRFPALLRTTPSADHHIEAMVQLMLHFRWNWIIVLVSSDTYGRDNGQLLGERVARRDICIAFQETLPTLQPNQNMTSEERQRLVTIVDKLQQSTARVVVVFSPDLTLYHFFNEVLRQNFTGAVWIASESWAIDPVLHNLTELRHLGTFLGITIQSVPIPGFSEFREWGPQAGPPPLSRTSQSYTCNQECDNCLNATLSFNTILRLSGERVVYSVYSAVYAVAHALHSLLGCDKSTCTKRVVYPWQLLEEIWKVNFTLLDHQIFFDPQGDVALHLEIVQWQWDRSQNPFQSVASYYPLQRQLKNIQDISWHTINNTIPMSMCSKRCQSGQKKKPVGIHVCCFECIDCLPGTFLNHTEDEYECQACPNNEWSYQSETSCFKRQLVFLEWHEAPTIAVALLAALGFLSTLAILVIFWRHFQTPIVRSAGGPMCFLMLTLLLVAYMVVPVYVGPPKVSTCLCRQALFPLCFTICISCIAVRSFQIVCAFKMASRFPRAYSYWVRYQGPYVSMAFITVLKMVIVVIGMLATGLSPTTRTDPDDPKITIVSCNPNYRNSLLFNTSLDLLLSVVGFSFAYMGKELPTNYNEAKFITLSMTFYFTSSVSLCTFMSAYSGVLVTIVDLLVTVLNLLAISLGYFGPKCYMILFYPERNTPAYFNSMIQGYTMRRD
T1 sequence (Q7RTX0 21-852): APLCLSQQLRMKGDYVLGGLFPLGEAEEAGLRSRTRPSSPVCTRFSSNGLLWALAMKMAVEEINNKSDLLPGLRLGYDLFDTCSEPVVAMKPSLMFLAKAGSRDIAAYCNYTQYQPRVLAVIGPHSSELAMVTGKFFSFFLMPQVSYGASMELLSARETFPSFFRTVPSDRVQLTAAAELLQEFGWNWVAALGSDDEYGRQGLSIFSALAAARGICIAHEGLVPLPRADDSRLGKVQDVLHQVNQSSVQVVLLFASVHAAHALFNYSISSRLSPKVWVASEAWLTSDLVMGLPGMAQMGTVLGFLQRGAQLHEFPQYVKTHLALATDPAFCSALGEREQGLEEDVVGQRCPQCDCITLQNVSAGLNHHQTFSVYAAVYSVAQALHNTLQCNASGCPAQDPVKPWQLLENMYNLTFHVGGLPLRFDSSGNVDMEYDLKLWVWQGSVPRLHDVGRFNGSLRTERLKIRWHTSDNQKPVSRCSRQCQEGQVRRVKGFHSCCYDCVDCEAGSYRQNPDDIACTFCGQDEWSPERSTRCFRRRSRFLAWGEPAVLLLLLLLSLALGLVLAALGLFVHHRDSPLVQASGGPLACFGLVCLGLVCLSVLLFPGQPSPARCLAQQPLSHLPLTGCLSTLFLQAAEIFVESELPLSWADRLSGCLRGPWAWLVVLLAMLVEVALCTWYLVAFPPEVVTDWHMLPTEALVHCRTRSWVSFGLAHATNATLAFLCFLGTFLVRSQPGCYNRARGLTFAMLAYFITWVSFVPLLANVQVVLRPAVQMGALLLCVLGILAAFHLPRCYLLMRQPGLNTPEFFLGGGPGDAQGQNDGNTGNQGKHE
Method: Activity was determined using an automated fluorometric imaging assay on a FLIPR instrument (Fluorometric Intensity Plate Reader, Molecular Devices, Sunnyvale, Calif.) (designated FLIPR assay). […] S-9 cells were grown for 24 hours at 37° C. S-9 cells were then loaded with the calcium dye Fluo-3AM (Molecular Probes, Eugene, Oreg.), 4 µM in a phosphate buffered saline (D-PBS) (Invitrogen, Carlsbad, Calif.), for 1 hour at room temperature. After replacement with 25 µl D-PBS, stimulation was performed in the FLIPR instrument and at room temperature by the addition of 25 µl D-PBS supplemented with different stimuli at concentrations corresponding to twice the desired final level.
For dose-responses analysis, stimuli were presented in duplicates at 10 different concentrations ranging from 60 nM to 30 µM. Activities were normalized to the response obtained with 400 mM D-fructose, a concentration that elicits maximum receptor response. EC50s were determined using a non-linear regression algorithm (using a Senomyx, Inc. software), where the Hill slope, bottom asymptotes and top asymptotes were allow to vary.

[2] = target: T2, hT1R1/hT1R3 umami receptor (Homo sapiens, UniProt Q7RTX0+Q7RTX1); test: In vitro hT1R1/hT1R3 umami taste receptor activation assay (FLIPR, dose response); type: cell-based
T2 construct: expressed in transfected cells; host or cells: HEK293 derivative stably expressing Gα15, clone I-17, expression induced with mifepristone
T2 sequence (Q7RTX1 21-841): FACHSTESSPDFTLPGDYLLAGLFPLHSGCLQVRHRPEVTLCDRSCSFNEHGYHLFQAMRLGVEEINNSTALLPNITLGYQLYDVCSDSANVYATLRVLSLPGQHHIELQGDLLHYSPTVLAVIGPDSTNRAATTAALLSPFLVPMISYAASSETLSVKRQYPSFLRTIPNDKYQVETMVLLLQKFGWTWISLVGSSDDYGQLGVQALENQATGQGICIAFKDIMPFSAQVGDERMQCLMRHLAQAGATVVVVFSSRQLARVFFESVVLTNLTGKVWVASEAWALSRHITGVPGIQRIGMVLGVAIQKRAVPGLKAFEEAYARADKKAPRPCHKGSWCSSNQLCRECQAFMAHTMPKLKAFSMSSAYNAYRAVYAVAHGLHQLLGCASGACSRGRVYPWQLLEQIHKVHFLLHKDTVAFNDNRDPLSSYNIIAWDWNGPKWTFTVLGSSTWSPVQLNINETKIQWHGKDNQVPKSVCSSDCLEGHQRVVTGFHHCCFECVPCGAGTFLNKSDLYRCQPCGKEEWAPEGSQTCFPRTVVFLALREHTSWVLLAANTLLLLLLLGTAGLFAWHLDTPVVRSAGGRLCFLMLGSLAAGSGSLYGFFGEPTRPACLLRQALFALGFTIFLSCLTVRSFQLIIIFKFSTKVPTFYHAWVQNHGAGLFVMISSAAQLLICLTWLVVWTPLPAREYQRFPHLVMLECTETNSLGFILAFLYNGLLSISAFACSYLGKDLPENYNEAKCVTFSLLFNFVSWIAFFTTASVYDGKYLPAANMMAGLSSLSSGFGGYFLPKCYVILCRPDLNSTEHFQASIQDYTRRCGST
T2 sequence (Q7RTX0 21-852): T1 sequence (Q7RTX0 21-852)

[3] = opposite enantiomers compared, read-out: AFFINITY FOR T1R1/T1R3 SAVORY RECEPTOR EC50 UM

pEC50 [1]	SMILES	other results
5.18	O=C(N[C@@H]1CCCc2ccccc21)c1ccoc1 [Example 170, (R)-N-(1,2,3,4-tetrahydronaphthalen-1-yl)furan-3-carboxamide]	
5.35	COc1ccc(NC(=O)N2Cc3ccccc3C2)c(C)c1 [Example 173, N-(4-methoxy-2-methylphenyl)isoindoline-2-carboxamide]	
6.42	CC1CCc2ccccc2C1NC(=O)c1cccc(Cl)c1O (centres unmarked) [Example 179, 3-Chloro-2-hydroxy-N-(2-methyl-1,2,3,4-tetrahydronaphthalen-1-yl)benzamide]	
6.30	COc1cccc2c1CCC(C)C2NC(=O)c1cccc(Cl)c1O (centres unmarked) [Example 186, 3-Chloro-2-hydroxy-N-(5-methoxy-2-methyl-1,2,3,4-tetrahydronaphthalen-1-yl)benzamide]	
6.62	CCCc1nocc1C(=O)N[C@@H]1CCCc2c(OC)cccc21 [Example 188, (R)-3-Propyl-N-(5-methoxy-1,2,3,4-tetrahydronaphthalen-1-yl)isoxazole-4-carboxamide]	
6.02	COc1cccc2c1CCC[C@H]2NC(=O)c1conc1C [Example 190, (R)-3-methyl-N-(5-methoxy-1,2,3,4-tetrahydronaphthalen-1-yl)isoxazole-4-carboxamide]	
6.85	C=CCc1c(F)c(F)c(C(=O)N[C@@H](C)C(C)C)c(F)c1F [Example 191, (S)-4-allyl-2,3,5,6-tetrafluoro-N-(3-methylbutan-2-yl)benzamide]	
6.85	CCCc1c(F)c(F)c(C(=O)N[C@@H](C)C(C)C)c(F)c1F [Example 192, (S)-2,3,5,6-tetrafluoro-N-(3-methylbutan-2-yl)-4-propylbenzamide]	
7.70	Cc1cccc2c1CN(C(=O)Nc1c(F)cc(Br)cc1F)C2 [Example 193, N-(4-bromo-2,6-difluorophenyl)-4-methylisoindoline-2-carboxamide]	
7.22	Cc1cc(F)c(NC(=O)N2Cc3cccc(C)c3C2)c(F)c1 [Example 194, N-(2,6-difluoro-4-methylphenyl)-4-methylisoindoline-2-carboxamide]	

The remaining lines, values behind:

SMILES	pEC50 [1]	other results
Cc1c(F)c(F)c(C(=O)N[C@@H](C)C(C)C)c(F)c1F [Example 163, (S)-2,3,5,6-tetrafluoro-4-methyl-N-(3-methylbutan-2-yl)benzamide]	6.22	
Cc1cccc(C)c1C(=O)NC1CCCCC1C (centres unmarked) [Example 168, 2,6-dimethyl-N-(2-methylcyclohexyl)benzamide]	5.73	
COc1cc(C)c(C(=O)NC2CCCCC2C)c(C)c1 (centres unmarked) [Example 169, 4-methoxy-2,6-dimethyl-N-(2-methylcyclohexyl)benzamide]	5.68	
Cc1cc(Cl)ccc1NC(=O)N1Cc2ccccc2C1 [Example 172, N-(4-chloro-2-methylphenyl)isoindoline-2-carboxamide]	6.05	
Cc1ccc2c(c1)C(NC(=O)c1cccc(Cl)c1O)CCC2 (centres unmarked) [Example 178, 3-Chloro-2-hydroxy-N-(7-methyl-1,2,3,4-tetrahydronaphthalen-1-yl)benzamide]	5.83	
CCOc1cccc2c1CCCC2NC(=O)c1conc1C (centres unmarked) [Example 181]	5.35	
Cc1cccc2c1CCC[C@H]2NC(=O)c1conc1C [Example 182, (R)-3-Methyl-N-(5-methyl-1,2,3,4-tetrahydronaphthalen-1-yl)isoxazole-4-carboxamide]	5.55	
COc1ccc2c(c1)[C@H](NC(=O)c1cccc(Cl)c1O)CCC2 [Example 184, (R)-3-Chloro-2-hydroxy-N-(7-methoxy-1,2,3,4-tetrahydronaphthalen-1-yl)benzamide]	6.59	
O=C(N[C@@H]1CCOc2ccccc21)c1cccc(Cl)c1O [Example 185, (R)-3-Chloro-N-(3,4-dihydro-2H-chromen-4-yl)-2-hydroxybenzamide]	5.99	
CCc1nocc1C(=O)N[C@@H]1CCCc2c(OC)cccc21 [Example 187, (R)-3-Ethyl-N-(5-methoxy-1,2,3,4-tetrahydronaphthalen-1-yl)isoxazole-4-carboxamide]	6.40	
CCCCc1nocc1C(=O)N[C@@H]1CCCc2c(OC)cccc21 [Example 189, (R)-3-Butyl-N-(5-methoxy-1,2,3,4-tetrahydronaphthalen-1-yl)isoxazole-4-carboxamide]	6.44	
COc1cc(F)c(NC(=O)N2Cc3cccc(C)c3C2)c(F)c1 [Example 195, N-(2,6-difluoro-4-methoxyphenyl)-4-methylisoindoline-2-carboxamide]	7.17	
COc1ccc(/C=C/C(=O)NC(C)CCc2ccccc2)cc1OC (centres unmarked) [Example D16, (E)-3-(3,4-dimethoxyphenyl)-N-(4-phenylbutan-2-yl)acrylamide]		pEC50 ([2]; Table D, Umami Acrylamides, read-out: Umami EC50): 5.81
COc1ccc(C(=O)N[C@H]2CCc3ccccc32)cc1C [drawing 26, (S)-N-(2,3-dihydro-1H-inden-1-yl)-4-methoxy-3-methylbeuzamide]		pEC50 [2, 3]: 7.10
CCOc1ccc(C(=O)N[C@H]2CCc3ccccc32)cc1C [drawing 28, (S)-N-(2,3-dihydro-1H-inden-1-yl)-4-ethoxy-3-methylbenzamide]		pEC50 [2, 3]: 6.07
COc1cccc(C(=O)N[C@@H]2CCCc3ccccc32)c1N [drawing 29, (R)-2-amino-3-methoxy-N-(1,2,3,4-tetrahydronaphthalen-1-yl)benzamide]		pEC50 [2, 3]: 7.05
